Source: US20230129485A1, “SYSTEM AND METHOD FOR DETERMINING MATERIAL PROPERTIES OF MOLECULAR SYSTEMS FROM AN AB-INITIO PARAMETERIZED FORCE-FIELD” (InterX, Inc., priority 2021, published 2023)

Columns and labels:
[1] = Free energy of hydration predicted with the QM-parameterized force field model (ARROW FF), classical MD and PIMD simulation in a water box; details: for water Arrow MD Error / water Arrow PIMD8 Error: Table 3; for water Arrow MD Error: absolute error of MD hydration free energy vs experiment; for water Arrow PIMD8 Error: absolute error of PIMD8 hydration free energy vs experiment; for Arrow PIMD8 Error: absolute error vs Exp (hydration)
Description: For example, the example QM-parameterized force-field molecular simulation process 400 can use Bennett Acceptance Ratio (BAR) to compute the free energy of hydration/solvation of the molecule in water or any other solvent. In some implementations, the analysis of the molecular dynamics simulations includes analysis, predication, and visualization of ensemble properties of atoms/molecules from atomic and molecular trajectories using the optimized parameters of the QM-parameterized force field model (i.e., the quantum mechanics rule-based reasoning technique) and the QM-parameterized force field model.
In some simulations of the QM-parameterized force field molecular simulation process, the molecules were placed in a water or cyclohexane box of size 32×32×32 Å3. Particle-Mesh Ewald (PME) algorithm was used to compute the electrostatic interactions. A 32×32×32 grid mesh and 5th power spline interpolation order can be used to compute the inverse PME sum. 9 Å cutoffs were used to compute the direct PME sum as well as the exchange and dispersion interactions. Bulk corrections were applied to account for distance cut-off of dispersion interactions. Solvation free energies were computed by decoupling the interactions between the solute and the solvent molecules. Electrostatic, exchange-repulsion and dispersion interactions were switched off simultaneously using a lambda-dependent scaling (a scaling factor power=2 was used) and a soft-coring algorithm (maximal soft-coring radius=1.5 Å, soft-coring radius scaling factor power=1). 15 lambda points unequally spaced (X=0, 0.05, 0.1, 0.2, 0.3, 0.4, 0.5, 0.6, 0.7, 0.75, 0.8, 0.85, 0.9, 0.95, 1.0) were used to decouple the solute-solvent intermolecular interactions.
In some simulations of the QM-parameterized force field molecular simulation process, energy minimization (10,000 steps) using the steepest descent algorithm was initially performed on all the simulation systems. This was followed by a 50 ps equilibration and 1 ns production runs in the isothermal-isobaric ensemble (NPT). […] Pressure was maintained at 1 atm using a MTTK barostat (relaxation time=5 ps). A Multiple Time Step (MTS) algorithm was used to integrate the equations of motion both for the classical and path-integral runs. […] The calculations were performed using the QM-parameterized force field model.
Using the QM-parameterized force field model, the QM-parameterized force field device can compute or predict the solvation free energies using both the Bennett acceptance ratio (BAR) and thermodynamic integration (TI) method with <dH/dλ> values interpolated by cubic splines. […] FIG. 7A illustrates a <dH/dλ> dependence for desolvation of Anthracene in water. FIG. 7B illustrates accumulated statistical errors for TI calculations of AG desolvation of Anthracene in water.

[2] = Free energy of hydration by COSMO implicit solvent model (MolPro ver. 2012); details: absolute error vs Exp (hydration)
Description: (§1) Due to unavailability of free energy data for the original COSMO model, the free energies of solvation for the molecule dataset are calculated using MolPro ver. […] The comparisons to other implicit solvent models such as SMD, PCM and COSMO-RS are limited to the overlap of the molecules computed using QM-parameterized force field model. The free energies of hydration as predicted by these implicit solvent models (SMD, PCM) were received.

[3] = Free energy of hydration by Solvation Model Dielectric (SMD) implicit solvent model; details: absolute error vs Exp (hydration)
Description: as §1

[4] = Free energy of hydration by Polarizable Continuum Model (PCM); details: absolute error vs Exp (hydration)
Description: as §1

[5] = Free energy of hydration by COSMO-RS
Description: as §1

[6] = Table 3; free energy of hydration, experimental; cited from earlier work
[7] = implicit solvent model, values received; cited from earlier work
[8] = implicit solvent model, values received; cited from earlier work; remark: listed apart in the source
[9] = CHEX/H2O partition coefficient (log D) predicted with the QM-parameterized force field model (ARROW FF)
Description: In some simulations, the example QM-parameterized force-field molecular simulation process includes using the functional form of the bonded interactions, with force constants and equilibrium values fitted to QM energies at the MP2/aug-cc-pVTZ level of theory. In some simulations, solvents of water and cyclohexane are selected. Cyclohexane (CHEX) is nonpolar and equilibrates relatively quickly. Reliable experimental data for both CHEX solvation free energies, as well as for the CHEX/H2O partition coefficients are used in these simulations.
In some example simulations, solutes containing neutral chemical functional groups, for example carboxylic acids, alkanes, alkenes, aromatics, aldehydes, ketones, alcohols, amides, esters, thiols, sulfides, disulfides and heterocycles, are used. The simulations were performed independently by four groups using their own respective computational resources and architectures, and then averaged. FIGS. 9A-9C show solvation and hydration free energies predictions of various solutes, using the QM-parameterized force field model, in some embodiments.
The straight line is a line of agreement between experimental and simulated/predicted values, and the gray bar is the range or chemical accuracy. […] The molecules here are a subset of those in a) because only those with experimental values for CHEX solvation can be included.

| Structure (SMILES) | water Arrow MD Error [1] | water Arrow PIMD8 Error [1] | Arrow PIMD8 Error [1] | COSMO/Molpro Error [2] | SMD Error [3] | PCM Error [4] | COSMO-RS error [5] | estimated statistical error of computed free energy of solvation ([1]; 1 ns trajectory, TI, FIG. 7B, in water) | water Exp (hydration) [6] | SMD free energy of hydration [7] | PCM free energy of hydration [8] | log D Arrow MD Error [9] | log D Arrow PIMD Error [9] | logD Arrow MD Error [9] | logD Arrow PIMD Error [9] |
| --- | --- | --- | --- | --- | --- | --- | --- | --- | --- | --- | --- | --- | --- | --- | --- |
| CC(C)(C)O [2-Methyl-2-Propanol] | 0.85 kcal/mol | 0.35 kcal/mol | 0.35 kcal/mol | 1.31 kcal/mol | 0.71 kcal/mol | 1.51 kcal/mol | 0.10 kcal/mol |  |  |  |  |  |  |  |  |
| c1ccc2cc3ccccc3cc2c1 [Anthracene] | 0.32 kcal/mol | 0.07 kcal/mol | 0.07 kcal/mol | 1.77 kcal/mol | 1.75 kcal/mol | 1.05 kcal/mol | 0.17 kcal/mol | about 0.2 kcal/mol | -3.95 kcal/mol | -2.20 kcal/mol | -2.90 kcal/mol |  |  |  |  |
| c1ccc(-c2ccccc2)cc1 [Biphenyl] | 1.17 kcal/mol | 0.13 kcal/mol | 0.13 kcal/mol | 2.64 kcal/mol |  |  | 0.31 kcal/mol |  | -2.66 kcal/mol |  |  |  |  |  |  |
| C=CC=C [Buta-13-diene] | 0.31 kcal/mol | 0.35 kcal/mol | 0.35 kcal/mol | 3.28 kcal/mol | 0.29 kcal/mol | 1.91 kcal/mol | 0.47 kcal/mol |  | 0.61 kcal/mol | 0.90 kcal/mol | -1.30 kcal/mol |  |  |  |  |
| C1CCCCCC1 [Cycloheptane] | 0.67 kcal/mol | 0.12 kcal/mol | 0.12 kcal/mol | 1.32 kcal/mol |  |  |  |  | 0.79 kcal/mol |  |  |  |  |  |  |
| OC1CCCCC1 [Cyclohexanol] | 1.09 kcal/mol | 0.34 kcal/mol | 0.34 kcal/mol | 1.03 kcal/mol |  |  | 0.33 kcal/mol |  | -5.47 kcal/mol |  |  |  |  |  |  |
| C1CCCC1 [Cyclopentane] | 0.71 kcal/mol | 0.12 kcal/mol |  |  |  |  |  |  | 1.20 kcal/mol |  |  |  |  |  |  |
| CCSCC [DiEthylSulfide] | 0.89 kcal/mol | 0.12 kcal/mol | 0.12 kcal/mol | 3.37 kcal/mol | 1.23 kcal/mol | 0.57 kcal/mol |  |  | -1.43 kcal/mol | -0.20 kcal/mol | -2.00 kcal/mol |  |  |  |  |
| CC(=O)N(C)C [DiMethylAcetamide] |  |  |  | 2.31 kcal/mol |  |  | 0.37 kcal/mol |  |  |  |  |  |  |  |  |
| CCOCC [DiethylEther] | 0.95 kcal/mol | 0.10 kcal/mol | 0.10 kcal/mol | 2.00 kcal/mol | 0.55 kcal/mol | 0.15 kcal/mol |  |  | -1.75 kcal/mol | -1.20 kcal/mol | -1.90 kcal/mol |  |  |  |  |
| CCS [EthaneThiol] | 0.94 kcal/mol | 0.43 kcal/mol | 0.43 kcal/mol | 2.70 kcal/mol | 0.24 kcal/mol | 0.86 kcal/mol |  |  | -1.24 kcal/mol | -1.00 kcal/mol | -2.10 kcal/mol |  |  |  |  |
| C=C [Ethene] | 0.29 kcal/mol | 0.19 kcal/mol | 0.19 kcal/mol | 2.95 kcal/mol | 0.12 kcal/mol | 2.08 kcal/mol | 0.55 kcal/mol |  | 1.28 kcal/mol | 1.40 kcal/mol | -0.80 kcal/mol |  |  |  |  |
| CCCCCC [Hexane] | 0.94 kcal/mol | 0.06 kcal/mol | 0.06 kcal/mol | 3.37 kcal/mol | 0.11 kcal/mol | 2.71 kcal/mol | 0.06 kcal/mol |  | 2.51 kcal/mol | 2.40 kcal/mol | -0.20 kcal/mol |  |  |  |  |
| CCCOC [MethylPropylEther] | 0.66 kcal/mol | 0.00 kcal/mol | 0.00 kcal/mol | 3.19 kcal/mol | 1.16 kcal/mol | 0.14 kcal/mol |  |  | -1.66 kcal/mol | -0.50 kcal/mol | -1.80 kcal/mol |  |  |  |  |
| CC(C)(C)C [NeoPentane] | 1.05 kcal/mol | 0.12 kcal/mol | 0.12 kcal/mol | 3.25 kcal/mol | 0.30 kcal/mol | 2.80 kcal/mol |  |  | 2.50 kcal/mol | 2.20 kcal/mol | -0.30 kcal/mol |  |  |  |  |
| C=CC [Propene] | 0.48 kcal/mol | 0.05 kcal/mol | 0.05 kcal/mol | 3.00 kcal/mol | 0.12 kcal/mol | 2.12 kcal/mol | 0.32 kcal/mol |  | 1.32 kcal/mol | 1.20 kcal/mol | -0.80 kcal/mol |  |  |  |  |
| CN [methylamine] | 0.49 kcal/mol | 0.16 kcal/mol | 0.16 kcal/mol | 1.24 kcal/mol |  |  | 0.26 kcal/mol |  | -4.55 kcal/mol |  |  |  |  |  |  |
| Cc1ccc(O)cc1 [p-cresol] |  |  |  |  |  |  |  |  |  |  |  | 0.73 | 0.11 | 0.73 | 0.11 |
| c1ccc2c(c1)ccc1ccccc12 [phenanthrene] | 0.35 kcal/mol | 0.09 kcal/mol | 0.09 kcal/mol | 1.97 kcal/mol |  |  |  |  | -3.88 kcal/mol |  |  |  |  |  |  |
| c1cc2ccc3cccc4ccc(c1)c2c34 [pyrene] | 0.45 kcal/mol | 0.01 kcal/mol | 0.01 kcal/mol | 1.32 kcal/mol |  |  |  |  | -4.52 kcal/mol |  |  |  |  |  |  |
| c1ccc2cc3cc4ccccc4cc3cc2c1 [tetracene] | 0.39 kcal/mol | 0.44 kcal/mol | 0.44 kcal/mol | 1.43 kcal/mol |  |  |  |  | -5.5 kcal/mol |  |  |  |  |  |  |
